# pIC50: −log10 of the molar value. Calls of active or inactive are those of the source. The rule behind the calls is not given here.
# Columns and labels:
# [1] = molecular target: T1, Dual specificity calcium/calmodulin-dependent 3',5'-cyclic nucleotide phosphodiesterase 1C (Homo sapiens, UniProt Q14123); test: Inhibition of PDE1C2 (147 to 531 residues) (unknown origin) using 3H-cGMP as substrate incubated for 15 mins by liquid scintillation counter analysis
# [2] = molecular target: T1, Dual specificity calcium/calmodulin-dependent 3',5'-cyclic nucleotide phosphodiesterase 1C; test: Inhibition of PDE1C2 (147 to 531 residues) (unknown origin) using 3H-cGMP as substrate at 8000 nM incubated for 15 mins by liquid scintillation counter analysis relative to control
# [3] = Half life in rat liver microsomes at 1.5 uM; type: ADME, Microsome
# Rattus norvegicus [4] = test: Antifibrotic activity against bile duct ligation induced Sprague-Dawley rat liver fibrosis model assessed as downregulation of alpha-SMA expression in liver at 2.5 mg/kg,ip administrated once daily for 21 days by Western blotting analysis; type: functional, organism-based; conditions: time 21.0 day
# Rattus norvegicus [5] = test: Antifibrotic activity against bile duct ligation induced Sprague-Dawley rat liver fibrosis model assessed as reduction in liver damage at 2.5 mg/kg,ip administrated once daily for 21 days by hematoxylin and eosin staining based analysis; type: functional, organism-based; conditions: time 21.0 day
# Rattus norvegicus [6] = test: Antifibrotic activity against bile duct ligation induced Sprague-Dawley rat liver fibrosis model assessed as increase in cAMP level in liver at 2.5 mg/kg,ip administrated once daily for 21 days by ELISA; type: functional, organism-based; conditions: time 21.0 day
# Rattus norvegicus [7] = test: Antifibrotic activity against bile duct ligation induced Sprague-Dawley rat liver fibrosis model assessed as reduction in alpha-smooth muscle actin level in liver at 2.5 mg/kg,ip administrated once daily for 21 days by immunofluorescence staining based analysis; type: functional, organism-based; conditions: time 21.0 day
# Rattus norvegicus [8] = test: Antifibrotic activity against bile duct ligation induced Sprague-Dawley rat liver fibrosis model assessed as reduction in total bile acid level at 2.5 mg/kg,ip administrated once daily for 21 days; type: functional, organism-based; conditions: time 21.0 day
# Rattus norvegicus [9] = test: Antifibrotic activity against bile duct ligation induced Sprague-Dawley rat liver fibrosis model assessed as reduction in collagen deposition at 2.5 mg/kg,ip administrated once daily for 21 days by Masson's trichome staining based analysis; type: functional, organism-based; conditions: time 21.0 day
# Rattus norvegicus [10] = test: Antifibrotic activity against bile duct ligation induced Sprague-Dawley rat liver fibrosis model assessed as downregulation of collagen I expression in liver at 2.5 mg/kg,ip administrated once daily for 21 days by Western blotting analysis; type: functional, organism-based; conditions: time 21.0 day
# Rattus norvegicus [11] = test: Antifibrotic activity against bile duct ligation induced Sprague-Dawley rat liver fibrosis model assessed as reduction in ALT level at 2.5 mg/kg,ip administrated once daily for 21 days; type: functional, organism-based; conditions: time 21.0 day
# Rattus norvegicus [12] = test: Antifibrotic activity against bile duct ligation induced Sprague-Dawley rat liver fibrosis model assessed as reduction in fibrotic lesion at 2.5 mg/kg,ip administrated once daily for 21 days by hematoxylin and eosin staining based analysis; type: functional, organism-based; conditions: time 21.0 day
# Rattus norvegicus [13] = test: Antifibrotic activity against bile duct ligation induced Sprague-Dawley rat liver fibrosis model assessed as increase in cGMP level in liver at 2.5 mg/kg,ip administrated once daily for 21 days by ELISA; type: functional, organism-based; conditions: time 21.0 day
# Rattus norvegicus [14] = test: Antifibrotic activity against bile duct ligation induced Sprague-Dawley rat liver fibrosis model assessed as reduction in AST level at 2.5 mg/kg,ip administrated once daily for 21 days; type: functional, organism-based; conditions: time 21.0 day
# T1 sequence (Q14123 whole entry, the tested form may be a part): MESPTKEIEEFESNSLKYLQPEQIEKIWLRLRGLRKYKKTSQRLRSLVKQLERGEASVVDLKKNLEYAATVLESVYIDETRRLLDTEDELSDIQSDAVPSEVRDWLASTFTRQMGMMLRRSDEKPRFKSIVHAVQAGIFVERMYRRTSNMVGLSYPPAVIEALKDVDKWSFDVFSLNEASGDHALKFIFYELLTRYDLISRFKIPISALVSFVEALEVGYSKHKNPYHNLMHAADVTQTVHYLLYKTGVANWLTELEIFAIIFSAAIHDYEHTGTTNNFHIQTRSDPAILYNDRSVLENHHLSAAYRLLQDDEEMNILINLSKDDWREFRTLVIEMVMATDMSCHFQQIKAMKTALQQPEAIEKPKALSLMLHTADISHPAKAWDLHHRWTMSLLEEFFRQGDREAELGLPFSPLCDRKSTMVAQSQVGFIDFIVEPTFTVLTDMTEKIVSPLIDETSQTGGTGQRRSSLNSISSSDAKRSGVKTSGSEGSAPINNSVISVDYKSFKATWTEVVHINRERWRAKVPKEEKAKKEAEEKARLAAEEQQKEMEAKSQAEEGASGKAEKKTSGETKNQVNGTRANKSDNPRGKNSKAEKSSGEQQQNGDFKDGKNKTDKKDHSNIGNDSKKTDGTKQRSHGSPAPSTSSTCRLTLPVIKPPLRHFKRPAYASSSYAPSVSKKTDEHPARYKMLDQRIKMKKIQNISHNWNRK
smiles,measurement,setting,value
COC(=O)C1=C(C)NC(=O)N(C(=O)SCc2ccccc2)C1c1ccc(OC(F)F)c(OCC2CC2)c1 (stereo unspecified),pIC50,[1],6.99
COc1ccc(C2C(C(=O)OCc3ccccc3)=C(C)NC(=O)N2C(=O)OCc2ccccc2)cc1OC (stereo unspecified),pIC50,[1],7.20
CCNC(=O)N1C(=O)NC(C)=C(C(=O)OCC2CCCCC2)C1c1ccc(OC(F)F)c(OCC2CC2)c1 (stereo unspecified),pIC50,[1],5.33
CC(=O)N1C(=O)NC(C)=C(C(=O)OCC2CCCCC2)C1c1ccc(OC(F)F)c(OCC2CC2)c1 (stereo unspecified),pIC50,[1],5.63
CC1=C(C(=O)OCC2CCCCC2)C(c2ccc(OC(F)F)c(OCC3CC3)c2)N(C)C(=O)N1 (stereo unspecified),inhibition,[2],45%
CC1=C(C(=O)OCC2CCCCC2)C(c2ccc(OC(F)F)c(OC(F)F)c2)N(C(=O)OCC2CCCCC2)C(=O)N1 (stereo unspecified),pIC50,[1],8.12
same,half-life at 1.5 µM,[3],3.03 min
COc1ccc(C2C(C(=O)OCC3CCCCC3)=C(C)NC(=O)N2C(=O)OCC2CCCCC2)cc1OC (stereo unspecified),pIC50,[1],8.23
same,half-life at 1.5 µM,[3],2.1 min
CC1=C(C(=O)OCC2CCCCC2)C(c2cccc(OCC3CC3)c2)N(C(=O)SCc2ccccc2)C(=O)N1 (stereo unspecified),pIC50,[1],7.38
COC(=O)C1=C(C)NC(=O)N(C(=O)OCC2CCCCC2)C1c1ccc(OC(F)F)c(OCC2CC2)c1 (stereo unspecified),pIC50,[1],7.43
COc1ccc(C2NC(=O)NC(C)=C2C(=O)OCC2CCCCC2)cc1OC (stereo unspecified),pIC50,[1],5.45
COc1ccc(C2C(C(=O)OCC3CCCCC3)=C(C)NC(=O)N2C(=O)OCC2CCCCC2)cn1 (stereo unspecified),pIC50,[1],7.29
CC1=C(C(=O)OCC2CCCCC2)C(c2cccc(Oc3ccccc3)c2)NC(=O)N1 (stereo unspecified),pIC50,[1],5.53
CC1=C(C(=O)OCC2CCCCC2)C(c2ccc(OC(F)F)c(OCC3CC3)c2)N(C(=O)OCC2CCCCC2)C(=O)N1 (stereo unspecified),pIC50,[1],8.64
same,half-life at 1.5 µM,[3],3.68 min
CC1=C(C(=O)OCC2CCCCC2)C(c2ccc(Cl)nc2)N(C(=O)OCC2CCCCC2)C(=O)N1 (stereo unspecified),pIC50,[1],6.71
CC1=C(C(=O)OCC2CCCCC2)C(c2ccc(OC(F)F)cc2)N(C(=O)SCc2ccccc2)C(=O)N1 (stereo unspecified),pIC50,[1],7.68
same,Activity,Rattus norvegicus [4],Active
same,Activity,Rattus norvegicus [5],Active
same,half-life at 1.5 µM,[3],7.1 min
same,Activity,Rattus norvegicus [6],Active
same,Activity,Rattus norvegicus [7],Active
same,Activity,Rattus norvegicus [8],Active
same,Activity,Rattus norvegicus [9],Active
same,Activity,Rattus norvegicus [10],Active
same,Activity,Rattus norvegicus [11],Active
same,Activity,Rattus norvegicus [12],Active
same,Activity,Rattus norvegicus [13],inactive
same,Activity,Rattus norvegicus [14],Active
COc1ccc(C2C(C(=O)OCC3CCCC3)=C(C)NC(=O)N2C(=O)OCC2CCCC2)cc1OC (stereo unspecified),pIC50,[1],7.38
CC1=C(C(=O)OCC2CCCCC2)C(c2ccc(OC(F)F)c(OCC3CC3)c2)N(Cc2cccc(F)c2)C(=O)N1 (stereo unspecified),inhibition,[2],40%
CC1=C(C(=O)OCC2CCCCC2)C(c2ccc(OC(F)F)c(OCC3CC3)c2)N(C(=O)/C=C/c2ccccc2)C(=O)N1 (stereo unspecified),pIC50,[1],5.22
CC1=C(C(=O)OCC2CCCCC2)C(c2ccc(OC(F)F)c(OCC3CC3)c2)N(C(=S)Oc2ccccc2)C(=O)N1 (stereo unspecified),pIC50,[1],8.24
same,half-life at 1.5 µM,[3],6.1 min
CC1=C(C(=O)OCC2CCCCC2)C(c2ccc(OC(F)F)c(OCC3CC3)c2)N(/C=C/Cc2ccccc2)C(=O)N1 (stereo unspecified),inhibition,[2],47%

# Reference: ChEMBL document CHEMBL5506023, “Design, Synthesis, and Evaluation of Dihydropyrimidine Derivatives as Selective PDE1 Inhibitors for the Treatment of Liver Fibrosis” (J Med Chem, 2024)
